This passage reports IC50 results from patent publication US20260138988A1, “Spiropyrrolidine Derived Antiviral Agents” (Enanta Pharmaceuticals, Inc., priority 2021, published 2026).

By IC50 is commonly meant the concentration that gives 50% inhibition.

The target of the assay is SARS-CoV-2 3CL-protease (Severe acute respiratory syndrome coronavirus 2, UniProt P0DTD1). Nature of the assay: SARS-CoV-2 3C-Like (3CL) Protease Fluorescence Assay (FRET). The note with it: SARS-CoV-2 3CL-protease 10 nM, test compounds 0-10 μM, duplicate, read-out: IC50. In kind it is biochemical.
`CC(C)C[C@@H](C(=O)N1C[C@]2(C[C@H]1C#N)C(=O)Nc1ccccc12)N(C)C(=O)[C@H](C)NC(=O)c1cc2occc2cc1F` [Example 188]: the half-maximal inhibitory concentration (IC50) was below 100 nM.

With `CC(C)C[C@@H](C(=O)N1C[C@]2(C[C@H]1C#N)C(=O)Nc1ccccc12)N(C)C(=O)[C@H](C)NC(=O)c1cccc2cc(F)ccc12` [Example 295], the IC50 is below 100 nM.

As to `CCN1[C@@H]2C[C@@H]2C[C@H]1C(=O)N(C)[C@@H](CC(C)C)C(=O)N1C[C@]2(C[C@H]1C#N)C(=O)Nc1ccccc12` [Example 261], the IC50 was below 100 nM.

For the compound `CC(C)C[C@@H](C(=O)N1C[C@]2(C[C@H]1C#N)C(=O)Nc1ccccc12)n1cccc(NC(=O)C2CC2)c1=O` [Example 357], the IC50 is below 100 nM.

Turning to `CC(C)OC(=O)OCN1C(=O)[C@]2(C[C@@H](C#N)N(C(=O)[C@H](CC3CC3)N(C)C(=O)[C@H](C)NC(=O)C(F)(F)C(F)(F)F)C2)c2ccccc21` [Example 350], the IC50 was in the range of 100 to 1000 nM.

Consider `CC(C)C[C@@H](C(=O)N1C[C@]2(C[C@H]1C#N)C(=O)Nc1ccccc12)N(C)C(=O)[C@H](C)NC(=O)C1(F)C(F)(F)C1(F)F` [Example 275], for which the IC50 was below 100 nM.

As for `CN(C(=O)[C@@H]1CC[C@@H](C2CC2)N1)[C@@H](CC(C)(C)C)C(=O)N1C[C@]2(C[C@H]1C#N)C(=O)Nc1ccccc12` [Example 228], the IC50 is below 100 nM.

Turning to `CC(C)(C)C[C@H](NC(=O)[C@H](CC1CC1)NC(=O)c1cnn(C2CC2)c1)C(=O)N1C[C@]2(C[C@H]1C#N)C(=O)Nc1ccccc12` [Example 323], the IC50 is below 100 nM.

For `C[C@H](NC(=O)c1ccc(F)cc1)C(=O)N(C)[C@@H](CC(C)(C)C)C(=O)N1C[C@]2(C[C@H]1C#N)C(=O)Nc1ccccc12` [Example 224], the IC50 was below 100 nM.

On to `CC(C)C[C@@H](C(=O)N1C[C@]2(C[C@H]1C#N)C(=O)Nc1ccccc12)N(C)C(=O)[C@H](C)NC(=O)C(F)(F)C(C)C` [Example 276], for which the IC50 was below 100 nM.

On to `CC(C)(C)C[C@H](NC(=O)[C@H](CC1CC1)NC(=O)C12CC3CC(CC(C3)C1)C2)C(=O)N1C[C@]2(C[C@H]1C#N)C(=O)Nc1ccccc12` [Example 319], for which the IC50 was below 100 nM.

`CC(C)C[C@@H](C(=O)N1C[C@]2(C[C@H]1C#N)C(=O)Nc1ccccc12)N(C)C(=O)[C@H]1CC[C@H](c2ccc(F)cc2)N1C(C)C` [Example 237]: the IC50 was below 100 nM.

Consider `C[C@H](NC(=O)c1ccc(C(C)(C)C)cc1)C(=O)N(C)[C@@H](CC(C)(C)C)C(=O)N1C[C@]2(C[C@H]1C#N)C(=O)Nc1ccccc12` [Example 213], for which the IC50 was below 100 nM.

As to `CC[C@H](NC(=O)C(F)(F)F)C(=O)N(C)[C@@H](CC(C)C)C(=O)N1C[C@]2(C[C@H]1C#N)C(=O)Nc1ccccc12` [Example 199], the IC50 was below 100 nM.

As for `CC(C)(C)C[C@H](NC(=O)[C@@H](Nc1ccc(F)cc1F)C1CC1)C(=O)N1C[C@]2(C[C@H]1C#N)C(=O)Nc1ccccc12` [Example 341], the IC50 was below 100 nM.

With `CC(C)(C)C[C@H](NC(=O)[C@H](CC1CC1)NC1CCCCC1)C(=O)N1C[C@]2(C[C@H]1C#N)C(=O)Nc1ccccc12` [Example 316], the IC50 is 100 to 1000 nM.

As to `CC(C)(C)C[C@H](NC(=O)c1ccc(F)cc1)C(=O)N[C@@H](CC(C)(C)C)C(=O)N1C[C@]2(C[C@H]1C#N)C(=O)Nc1ccccc12` [Example 225], the IC50 is below 100 nM.

With `C[C@@H]1NC(=O)CCCc2ccc3c(c2)[C@@]2(C[C@@H](C#N)N(C2)C(=O)[C@H](CC(C)(C)C)N(C)C1=O)C(=O)N3` [Example 378], the IC50 is below 100 nM.

In the case of `CC(C)(C)C[C@H](NC(=O)C(F)(F)F)C(=O)N[C@@H](CC(C)(C)C)C(=O)N1C[C@]2(C[C@H]1C#N)C(=O)Nc1ccccc12` [Example 226], the IC50 was below 100 nM.

For the compound `CC(C)(C)C[C@H](NC(=O)[C@@H](Nc1ccc2ccccc2c1)C1CC1)C(=O)N1C[C@]2(C[C@H]1C#N)C(=O)Nc1ccccc12` [Example 342], the IC50 was below 100 nM.

Turning to `CN1C[C@H](C(F)(F)F)C[C@H]1C(=O)N(C)[C@@H](CC(C)(C)C)C(=O)N1C[C@]2(C[C@H]1C#N)C(=O)Nc1ccccc12` [Example 230], the IC50 was in the range of 100 to 1000 nM.

For `CC(C)N1[C@H](C(F)(F)F)CC[C@H]1C(=O)N(C)[C@@H](CC(C)(C)C)C(=O)N1C[C@]2(C[C@H]1C#N)C(=O)Nc1ccccc12` [Example 236], the IC50 fell in the range of 100 to 1000 nM.

Consider `CC(C)C[C@@H](C(=O)N1C[C@]2(C[C@H]1C#N)C(=O)Nc1ccccc12)N(C)C(=O)[C@@H]1[C@@H]2C[C@@H]2CN1C1CC1` [Example 252], for which the IC50 was 100 to 1000 nM.

`CC[C@H](NC(=O)C1(F)C(F)(F)C1(F)F)C(=O)N(C)[C@@H](CC(C)C)C(=O)N1C[C@]2(C[C@H]1C#N)C(=O)Nc1ccccc12` [Example 196]: the IC50 was below 100 nM.

Consider `CCCC(F)(F)C(=O)N[C@@H](C)C(=O)N(C)[C@@H](CC(C)C)C(=O)N1C[C@]2(C[C@H]1C#N)C(=O)Nc1ccccc12` [Example 277], for which the IC50 was below 100 nM.

Turning to `CC(C)C[C@@H](C(=O)N1C[C@]2(C[C@H]1C#N)C(=O)Nc1ccccc12)N(C)C(=O)[C@H](C)NC(=O)C(=O)Nc1c(F)cccc1C(F)(F)F` [Example 202], the IC50 was below 100 nM.

Take `C[C@@H]1NC(=O)CCCCCCc2ccc3c(c2)[C@@]2(C[C@@H](C#N)N(C2)C(=O)[C@H](CC(C)(C)C)NC1=O)C(=O)N3` [Example 379]: the IC50 was above 1000 nM.

On to `COCCOCCC(=O)N[C@@H](C)C(=O)N(C)[C@@H](CC(C)(C)C)C(=O)N1C[C@]2(C[C@H]1C#N)C(=O)Nc1ccccc12` [Example 263], for which the IC50 is below 100 nM.

On to `CC(C)C[C@@H](C(=O)N1C[C@]2(C[C@H]1C#N)C(=O)Nc1ccccc12)N(C)C(=O)[C@H](C)NC(=O)c1c(F)ccc2[nH]ccc12` [Example 185], for which the IC50 was below 100 nM.

Turning to `C[C@H](NC(=O)C(C)(F)F)C(=O)N(C)[C@@H](Cc1ccccc1)C(=O)N1C[C@]2(C[C@H]1C#N)C(=O)Nc1ccccc12` [Example 269], the IC50 is below 100 nM.

In the case of `C[C@H](NC(=O)c1ccc(Cl)cc1)C(=O)N(C)[C@@H](CC(C)(C)C)C(=O)N1C[C@]2(C[C@H]1C#N)C(=O)Nc1ccccc12` [Example 211], the IC50 was below 100 nM.

With `C[C@H](NC(=O)C(C)(C)C)C(=O)N[C@@H](CC(C)(C)C)C(=O)N1C[C@]2(C[C@H]1C#N)C(=O)Nc1ccccc12` [Example 219], the IC50 is below 100 nM.

As for `CCN(C(=O)[C@H](C)NC(=O)c1c(F)cc(F)cc1F)[C@@H](CC(C)C)C(=O)N1C[C@]2(C[C@H]1C#N)C(=O)Nc1ccccc12` [Example 362], the concentration for half-maximal inhibition (IC50) was below 100 nM.

Turning to `CC(C)N1CCc2cc(C(=O)N(C)[C@@H](CC(C)(C)C)C(=O)N3C[C@]4(C[C@H]3C#N)C(=O)Nc3ccccc34)[nH]c2C1` [Example 176], the IC50 was below 100 nM.

With `CC(C)C[C@@H](C(=O)N1C[C@]2(C[C@H]1C#N)C(=O)Nc1ccccc12)N(C)C(=O)[C@H](C)NC(=O)C(F)(F)C1CCCC1` [Example 197], the IC50 is below 100 nM.

As to `CC(C)(C)C[C@H](NC(=O)[C@H](CC1CC1)NS(=O)(=O)c1cnn(-c2ccc(F)cc2)c1)C(=O)N1C[C@]2(C[C@H]1C#N)C(=O)Nc1ccccc12` [Example 314], the IC50 fell in the range of 100 to 1000 nM.

`CC(C)C[C@@H](C(=O)N1C[C@]2(C[C@H]1C#N)C(=O)Nc1ccccc12)N(C)C(=O)[C@@H]1CC2(CCCC2)CN1C1CC1` [Example 256]: the IC50 was below 100 nM.

In the case of `CC(C)(C)C[C@H](NC(=O)[C@H](CC1CC1)NC(=O)c1cccc2cc(F)ccc12)C(=O)N1C[C@]2(C[C@H]1C#N)C(=O)Nc1ccccc12` [Example 315], the IC50 is below 100 nM.

In the case of `C[C@H](NC(=O)c1c(F)c(F)c(F)c(F)c1F)C(=O)N(C)[C@@H](CC(C)(C)C)C(=O)N1C[C@]2(C[C@H]1C#N)C(=O)Nc1ccccc12` [Example 300], the IC50 was below 100 nM.

Take `CC(C)C[C@@H](C(=O)N1C[C@]2(C[C@H]1C#N)C(=O)Nc1ccccc12)N(C)C(=O)[C@@H]1[C@@H]2C[C@@H]2CN1C(C)C` [Example 251]: the IC50 was 100 to 1000 nM.

Turning to `C[C@H](NC(=O)C(F)(F)C(F)(F)F)C(=O)N(C)[C@@H](CC1CC1)C(=O)N1C[C@]2(C[C@H]1C#N)C(=O)N(COP(=O)(O)O)c1ccccc12` [Example 352], the IC50 was below 100 nM.

On to `CC(C)N1[C@H](C(=O)N(C)[C@@H](CC(C)(C)C)C(=O)N2C[C@]3(C[C@H]2C#N)C(=O)Nc2ccccc23)C[C@@H]2CCCC[C@@H]21` [Example 180], for which the IC50 was below 100 nM.

As to `CC(C)N1[C@H](C(=O)N(C)[C@@H](CC(C)(C)C)C(=O)N2C[C@]3(C[C@H]2C#N)C(=O)Nc2ccccc23)CC[C@@H]1C(F)(F)F` [Example 235], the IC50 was in the range of 100 to 1000 nM.

In the case of `C[C@H](NC(=O)/C=C/c1ccc(F)cc1)C(=O)N(C)[C@@H](CC(C)(C)C)C(=O)N1C[C@]2(C[C@H]1C#N)C(=O)Nc1ccccc12` [Example 242], the IC50 was below 100 nM.

Take `C[C@H](NC(=O)C(F)(F)C(F)(F)F)C(=O)N(C)[C@@H](C)C(=O)N1C[C@]2(C[C@H]1C#N)C(=O)Nc1ccccc12` [Example 207]: the IC50 was below 100 nM.

Consider `C[C@H](NC(=O)c1cc2c(F)cc(F)c(F)c2[nH]1)C(=O)N(C)[C@@H](CC(C)(C)C)C(=O)N1C[C@]2(C[C@H]1C#N)C(=O)Nc1ccccc12` [Example 208], for which the IC50 was below 100 nM.

For `CC(C)C[C@@H](C(=O)N1C[C@]2(C[C@H]1C#N)C(=O)Nc1ccccc12)N(C)C(=O)[C@H](C)NC(=O)C12CC(C(F)(F)F)(C1)C2` [Example 279], the IC50 is below 100 nM.

Regarding `CCN(C(=O)[C@H](C)NC(=O)C(F)(F)F)[C@@H](CC(C)C)C(=O)N1C[C@]2(C[C@H]1C#N)C(=O)Nc1ccccc12` [Example 365], the IC50 was below 100 nM.

Consider `C[C@H](NC(=O)c1ccc(F)cc1)C(=O)N(C)[C@@H](Cc1ccccc1)C(=O)N1C[C@]2(C[C@H]1C#N)C(=O)Nc1ccccc12` [Example 270], for which the IC50 is below 100 nM.

For the compound `C[C@H](NC(=O)C12CC3CC(CC(C3)C1)C2)C(=O)N(C)[C@@H](CC(C)(C)C)C(=O)N1C[C@]2(C[C@H]1C#N)C(=O)Nc1ccccc12` [Example 310], the IC50 is below 100 nM.

Take `CC(C)C[C@H](C(=O)N1C[C@]2(C[C@H]1C#N)C(=O)Nc1ccccc12)n1cccc(NC(=O)OC(C)(C)C)c1=O` [Example 360]: the IC50 was below 100 nM.
